Measured values: patent US20230255965A1, “TRPV4 INHIBITOR AS A THERAPEUTIC AGENT FOR OCULAR DISEASES” (RaQualia Pharma Inc., priority 2020, published 2023)
Where two headings read alike, the source gives them in different places.

How the values were obtained:
[1] = test system: mouse model of retinal vein occlusion; assay: Late drug administration 7 days after vascular occlusion: ocular blood flow (laser speckle); assay type: in vivo; conditions: 250 μM, 2 μL intravitreal 7 days after occlusion, measured 1 day after administration
Protocol: (§1) Eight-week-old male ddY mice are anesthetized with a mixture of ketamine (120 mg/kg) and xylazine (6 mg/kg) administered intramuscularly. After that, 0.15 mL of a photosensitizer, rose bengal (20 mg/kg) is administered into the tail vein, and a laser (wavelength 532 nm) is irradiated into a vein three optic disc diameters away from the optic disc in the mouse right eye to occlude the retinal vein and form a pathological condition. Laser irradiation is performed using an attachment of Micron4 (Phoenix Research lab., CA, USA), which is a fundus imaging device, under prescribed laser irradiation conditions (wavelength 532 nm, spot size 50 μm, irradiation time 5 seconds, laser power 50 mW). The vein is occluded by 10 to 15 laser irradiations per vein.
(§2) Seven days after vascular occlusion, the retina is damaged, the retinal layer structure is thinned, the blood flow is reduced, and a retinal nonperfusion area exists. Whether the TRPV4 inhibitor restores this condition is evaluated. […]
(§3) Seven days after vascular occlusion, 2 μL of a TRPV4 inhibitor (250 μM) or vehicle is administered intravitreally. One day after administration (8 days after occlusion), the retinal layers are imaged using optical coherence tomography (OCT) and intraocular blood flow is measured using laser speckle.

[2] = test system: human retinal microvascular endothelial cells (HRMECs); assay: Cell permeability using human retinal microvascular endothelial cells, transendothelial electrical resistance (TEER); assay type: cell-based; conditions: for inhibition at 10 µM: Homo sapiens, HRMEC, read-out: inhibition rate of increased vascular permeability (TEER); for change of transepithelial electrical resistance (TEER values): 24 hours after addition
Protocol: Human retinal microvascular endothelial cells (HRMECs) are seeded onto Transwell inserts at a density of 1.0×10^5 cells/mL. The medium is changed every other day and the cells are cultured for 7 days. Transendothelial electrical resistance (TEER) is measured using a measurement device and cup-shaped electrode (Endohm-6; World Precision Instruments, USA). One hour after the addition of a TRPV4 inhibitor (final concentration: 1 μM, 10 μM) or buffer for evaluation to cells, VEGF (final concentration: 10 ng/mL) or GSK1016790A, a TRPV4 agonist (final concentration: 10 nM) is added, and 24 hours after the addition, transepithelial electrical resistance values (TEER values) is measured 24 hours after addition. The transepithelial electrical resistance value (TEER value) is an index for evaluating barrier functions such as tight junctions of cells.

[3] = test system: mouse model of retinal vein occlusion; assay: Late drug administration 7 days after vascular occlusion: suppression of retinal thinning (OCT); assay type: in vivo; conditions: 250 μM, 2 μL intravitreal 7 days after occlusion, measured 1 day after administration
Protocol: as §1, §2, §3

[4] = test system: mouse model of retinal vein occlusion; assay: Late drug administration 7 days after vascular occlusion: retinal nonperfusion area (FITC-dextran flat mount); assay type: in vivo; conditions: 250 μM, 2 μL intravitreal 7 days after occlusion, 1 day after administration
Protocol: as §1, §2
as §3, with “speckle. […]” for “speckle.”

[5] = test system: tumor necrosis factor alpha (TNFα); assay: Expression of TNFα in retina of mouse retinal vein occlusion model by Western blotting; assay type: in vivo; conditions: 250 μM, 2 μL intravitreal immediately after vascular occlusion, retina 1 day after occlusion
Protocol: as §1
Using the same method as in Example 3, the retinal veins of mice are occluded by laser irradiation into the veins of the eye.
Immediately after laser irradiation, 2 μL of a TRPV4 inhibitor (250 μM) is administered intravitreally. One day after vascular occlusion, the mice are euthanized by cervical dislocation, and then retinas isolated from removed eyeballs are evaluated by Western blotting.

[6] = test system: mouse retinal vein occlusion model; assay: Histological evaluation for retinal vein occlusion: thickness of the retinal inner nuclear layer (INL), HE staining; assay type: in vivo; conditions: single intravitreal administration of 2 μL, 24 hours after irradiation, vs vehicle
Protocol: as §1
Immediately after laser irradiation, a TRPV4 inhibitor is administered, and 24 hours after irradiation, the eyeball is removed and a retinal histopathology specimen is prepared. Hematoxylin-eosin (HE) staining is performed to measure the thickness of the retinal inner nuclear layer (INL). Other stains (e.g., TUNEL stain) may be used for analysis as needed.
Administration of a TRPV4 inhibitor is performed by intravitreal administration (local administration). The conditions of the solution for administration are investigated in advance, and the concentration for intravitreal administration is determined. However, if the conditions for systemic administration are met, systemic administration may be included in the group composition. For intravitreal administration, the dosage should be 2 μL/eye as a single dose. For systemic administration, the number of doses and dosage should be determined after a separate consideration.
After a single intravitreal administration of 2 μL of a TRPV4 inhibitor (25 μM, 250 μM) or vehicle, whether the TRPV4 inhibitor restores the retinal edema is evaluated.

[7] = test system: diabetic model mice; conditions: cited from earlier work; for retinal edema: single intravitreal administration
[8] = final concentration 10 μM, compared to VEGF-added group, 24 hours

## O=C([C@H](O)c1cccc(Cl)c1)N1CCc2nc(C3(c4ccccc4)CC3)[nH]c(=O)c2C1 [Compound A, (R)-6-(2-(3-chlorophenyl)-2-hydroxyacetyl)-2-(1-phenylcyclopropyl)-5,6,7,8-tetrahydropyrido[4,3-d]pyrimidin-4(3H)-one]
[1]
  improvement of ocular blood flow reduction rate: ≥ 30%
[2]; final concentration 1 μM, 10 μM, VEGF 10 ng/mL or GSK1016790A 10 nM added, 24 hours
  inhibition rate of increased vascular permeability (TEER): ≥ 50%
[3]
  inhibition of retinal thinning: ≥ 30%
[4]
  inhibition rate of nonperfusion areas in the retina: ≥ 50%
[5]
  inhibition rate of the increase in TNF expression: ≥ 50%
[6]; 25 μM
  inhibition rate of the increase in the thickness of the retinal inner nuclear layer (INL): 40%
[6]; 250 μM
  inhibition rate of the increase in the thickness of the retinal inner nuclear layer (INL): 76%

## CC(C)(O)c1cnc(N2C[C@@]3(CCC[C@](C)(Cn4cnc5ccc(C#N)cc54)C3)OC2=O)cn1 [Compound B, 1-(((5S,7S)-3-(5-(2-hydroxypropan-2-yl)pyrazin-2-yl)-7-methyl-2-oxo-1-oxa-3-azaspiro[4.5]decan-7-yl)methyl)-1H-benzo[d]imidazole-6-carbonitrile]
[2]; 24 h
  inhibition at 10 µM: ≥ 30%
[6]; 250 μM
  inhibition rate of the increase in the thickness of the retinal inner nuclear layer (INL): 62%

## O=C(NC1(c2ccccc2)CC1)c1c(CN2CCC(N3CCCCC3)CC2)c(-c2cccc(C(F)(F)F)c2)nc2cc(Br)ccc12 [Compound C, 3-(1,4′-bipiperidin-1′-ylmethyl)-7-bromo-N-(1-phenylcyclopropyl)-2-[3-(trifluoromethyl)phenyl]-4-quinolinecarboxamide]
[7]; Non-Patent Literature 11
  retinal thinning: not suppressed
  retinal edema: it does not
[7]; Patent Literature 2
  retinal edema: suppresses retinal edema
[2]; [8]
  inhibition at 10 µM: ≥ 30%
[6]; 250 μM
  inhibition rate of the increase in the thickness of the retinal inner nuclear layer (INL): 59%

## Cc1c(C(=O)Nc2cccc(C(F)(F)F)c2)cc(-c2ccccc2)n1CCCN1CCOCC1 [Compound D, N-(3-(trifluoromethyl)phenyl)-2-methyl-1-(3-morpholinopropyl)-5-phenyl-1H-pyrrole-3-carboxamide]
[2]; [8]
  inhibition at 10 µM: ≥ 30%
[6]; 250 μM
  inhibition rate of the increase in the thickness of the retinal inner nuclear layer (INL): 64%

## CC(C)C[C@H](NC(=O)c1cc2ccccc2s1)C(=O)N1CCN(C(=O)[C@H](CO)NS(=O)(=O)c2ccc(Cl)cc2Cl)CC1 [GSK1016790A]
[2]; GSK1016790A final concentration 10 nM
  change of transepithelial electrical resistance (TEER values): decreases transepithelial electrical resistance

## VEGF
[2]; VEGF final concentration 10 ng/mL
  change of transepithelial electrical resistance (TEER values): decreases transepithelial electrical resistance
